Measurements from US7332523B2, “TNP-470 polymer conjugates and use thereof” (Children's Medical Center Corporation, priority 2002, dated 2008).

Legend:
[1] = tested on: chick aortic ring; test: Chick aortic ring endothelial sprouting assay; format: cell-based
Experimental: Aortic arches were dissected from day-14 chick embryos, cut into cross-sectional fragments, and implanted in vitro in Matrigel using a modification of methods previously described (V. Muthukkaruppan, personal communication). When cultured in MCDB-131 medium supplemented with 5% fetal bovine serum, endothelial cells sprouted and vascular channel formation occurred within 24-48 hours.

[2] = tested on: liver regeneration; test: Hepatectomy model (liver regeneration); format: in vivo, C57BL/6J mice
Experimental: Male C57BL/6J mice underwent a partial hepatectomy through a midline incision after general anesthesia with isoflourane^33. Free or conjugated TNP-470 (30 mg/kg) were given s.c. every other day for 8 days beginning on the day of surgery according to the scheme described in FIG. 4a. Alternatively, the doses given were 60 mg/kg the day of surgery and 4 days later or 120 mg/kg once on the day of the partial hepatectomy. The liver was harvested on the 8th day, weighed and analyzed by histology.

[3] = tested on: A2058 human melanoma; test: Antitumor activity in SCID mice bearing s.c. A2058 human melanoma; format: in vivo
Excerpt: Each group consisted of 5 mice.

[4] = tested on: murine, human and metastatic tumors; conditions: mice; mostly 30 mg/kg subcutaneously every other day; cited from earlier work
[5] = at doses where antitumor activity has been seen; cited from earlier work
[6] = cited from earlier work
[7] = tested on: LLC; test: Antitumor activity in C57BL/6J mice bearing s.c. LLC; conditions: 30 mg/kg q.o.d. (data not shown)
[8] = Early mouse development (body weight of newborn mice); conditions: injected into 7 and 17 day-old BALB/c mice
[9] = clinical pharmacokinetics, comparison value in words; cited from earlier work

| SMILES | effect on vascular sprouts ([1]; 50 pg/ml) | effect on vascular sprouts ([1]; 100 pg/ml) | inhibition of liver regeneration ([2]; 60 mg/kg every four days (q.4.d.)) | inhibition of liver regeneration ([2]; single injection of 120 mg/kg on the day of hepatectomy) | T/C (mean tumor volume treated / untreated control) ([3]; 30 mg/kg TNP-equiv.) | survival ([3]; free or conjugated TNP-470, 30 mg/kg TNP-equiv.) | inhibition of growth of human tumors [4] | inhibition of growth of metastatic tumors [4] | inhibition of growth of murine tumors [4] | adverse effects in patients [5] | body weight in animals ([6]; animals receiving TNP-470) | toxicity to mice at the higher doses ([6]; doses of 60 and 90 mg/kg/q.o.d., mice) | splenic weight ([6]; two reports) | weight loss [7] | effect on growth / weight gain in normal development [8] | t1/2α [9] |
| --- | --- | --- | --- | --- | --- | --- | --- | --- | --- | --- | --- | --- | --- | --- | --- | --- |
| CO[C@@H]1[C@H](OC(=O)NC(=O)CCl)CC[C@]2(CO2)[C@H]1[C@@]1(C)O[C@@H]1CC=C(C)C [TNP-470, O-(chloracetyl-carbamoyl) fumagillol] | reduced the number and length of vascular sprouts | completely prevented outgrowth | did not inhibit liver regeneration | did not inhibit liver regeneration | 0.34 | increased survival | up to 100% | up to 100% | up to 91% | neurotoxicity (malaise, rare seizures, asthenia, anxiety and dysphoria) | weight loss or failure to gain weight | known to be toxic | decrease in splenic weight | did | inhibited growth, by inhibiting weight gain | – |
| COc1cccc2c1C(=O)c1c(O)c3c(c(O)c1C2=O)C[C@@](O)(C(=O)CO)C[C@@H]3O[C@H]1C[C@H](N)[C@H](O)[C@H](C)O1 [doxorubicin] | – | – | – | – | – | – | – | – | – | – | – | – | – | – | – | few minutes |
